Laboratory results from patent US20260174878A1, “IRAK4 DEGRADATION AGENT AND USE THEREOF” (LEADINGTAC PHARMACEUTICAL (SHAOXING) CO., LTD., priority 2022, published 2026).
Values belong to the molecule of their own block, whether it stands above or below them.

Experiments:
[1] = system: imiquimod-induced mouse psoriasis model; experiment: Imiquimod-induced C57 mouse psoriasis model; assay type: in vivo, C57BL/6 mice; settings: p<0.0001
Description: Then 10% of the total volume of Solutol was added, and the mixture was subjected to vortex ultrasonic treatment until clear. […] The compound was formulated fresh for each use.
B. Imiquimod sensitization and drug intervention on C57BL/6J mice were conducted, with specific administration times shown in Table 6. • i. On Day 1, the backs of the mice were shaved, ensuring consistent area using a mold, approximately 2 cm×3 cm, and 60 mice were selected; • ii. the mice were randomly divided into 6 groups based on body weight and right ear thickness, with 10 mice per group; • iii. 6 to induce psoriasis symptoms in the model mice, imiquimod was applied on the back skin and right ear of the mice in groups G2-G6 for sensitization at noon on Day 0, and this continued for 7 days. • iv. […] Endpoint sampling of the mice was performed on Day 5 or Day 7.
• Clinical score and right ear thickness.

IRAK4 kinase = molecular target: T1, IRAK4 kinase (Homo sapiens, UniProt Q9NWZ3); experiment: IRAK4 kinase activity test (KinEASE-STK S1 HTRF kit); assay type: biochemical; settings: IRAK4 kinase 2.5 nM, 7 μM adenosine triphosphate, 37° C. 120 min
T1 construct: purchased Carna
T1 sequence (Q9NWZ3 1-460): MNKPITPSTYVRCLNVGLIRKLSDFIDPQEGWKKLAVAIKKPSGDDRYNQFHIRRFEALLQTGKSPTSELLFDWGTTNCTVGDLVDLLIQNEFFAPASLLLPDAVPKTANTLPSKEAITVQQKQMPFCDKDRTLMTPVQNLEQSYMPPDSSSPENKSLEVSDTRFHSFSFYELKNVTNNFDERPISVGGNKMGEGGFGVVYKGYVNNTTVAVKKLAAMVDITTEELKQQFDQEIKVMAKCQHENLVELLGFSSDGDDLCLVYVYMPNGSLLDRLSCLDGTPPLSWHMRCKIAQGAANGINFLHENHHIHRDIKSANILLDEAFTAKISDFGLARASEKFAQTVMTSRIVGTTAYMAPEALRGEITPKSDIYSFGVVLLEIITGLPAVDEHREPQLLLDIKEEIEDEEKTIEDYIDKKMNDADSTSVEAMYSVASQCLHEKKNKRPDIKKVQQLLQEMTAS
Description: Then 2.5 nM IRAK4 kinase (Carna), 1 μM biotinylated polypeptide substrate (Cisbio), and 7 μM adenosine triphosphate (Sigma-Aldrich) were sequentially added, and the mixtures were incubated at 37° C. for 120 min. Subsequently, an anti-phosphoserine/threonine antibody (Cisbio) conjugated with a europium element compound and streptavidin conjugated with a modified XL665 (Cisbio) were added to the reaction system to stop the reaction. After 1 h of incubation at room temperature, the fluorescence intensity of each well was measured at the excitation wavelength of 337 nm and the emission wavelengths of 620 nm and 665 nm with a microplate reader EnVision (PerkinElmer) in the HTRF mode, and Ratio values were calculated using the formula: Ratio=(665 nm/620 nm)×10^4. The inhibition rates of the compounds at each concentration were calculated by comparison with the fluorescence intensity ratio of the control group. Then non-linear curve fittings for logarithmic concentration-inhibition rate were performed using GraphPad Prism 7, and the IC50 values of the compounds were obtained.

[2] = molecular target: T2, IRAK4 protein in normal human PBMCs (Homo sapiens, UniProt Q9NWZ3); experiment: Degradation of IRAK4 protein in normal human PBMCs (AlphaLISA); assay type: cell-based; settings: 24 h incubation
T2 construct: host or cells: normal human PBMCs
T2 sequence (Q9NWZ3 1-460): T1 sequence (Q9NWZ3 1-460)
How it was run: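 Cryopreserved normal human PBMCs treated with compound at 0.01-3000 nM (0.25% DMSO) for 24 h at 37 °C. IRAK4 in lysates quantified by AlphaLISA against a standard curve and normalized to BCA total protein. Degradation versus control fitted to give DC50 and Dmax.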

Compound: C=C1/C(=C\C=C2/CCC[C@]3(C)[C@@H]([C@H](C)CCCC(C)(C)O)CC[C@@H]23)C[C@@H](O)C[C@@H]1O [calcitriol]
inhibition rate relative to vehicle control (AUC of clinical score) ([1]; ointment 75 mg back + 24 mg right ear/mouse topical QD): 44.5%

IC50 (IRAK4 kinase): 7.74 nM | DC50 [2]: 0.88 nM | Dmax [2]: 97.4%
Compound: O=C1CCN(c2cc(C(=O)N3CCC4(CCN(C[C@H]5CC[C@H](n6cc(NC(=O)c7cnn8ccc(N9CC%10CCC(C9)O%10)nc78)c(C(F)F)n6)CC5)CC4)CC3)ccc2Cl)C(=O)N1 [Example 11, 5-(8-oxa-3-azabicyclo[3.2.1]octan-3-yl)-N-(1-((1R,4R)-4-((9-(4-chloro-3-(2,4-dioxotetrahydropyrimidin-1(2H)-yl)benzoyl)-3,9-diazaspiro[5.5]undecan-3-yl)methyl)cyclohexyl)-3-(difluoromethyl)-1H-pyrazol-4-yl)pyrazolo[1,5-a]pyrimidine-3-carboxamide]

Compound: CC(=O)OCC(=O)[C@@]1(O)[C@H](C)C[C@H]2[C@@H]3CCC4=CC(=O)C=C[C@]4(C)[C@@]3(F)[C@@H](O)C[C@@]21C [dexamethasone, Dexamethasone acetate]
inhibition rate relative to vehicle control (AUC of clinical score) ([1]; 5 mpk p.o. QD): 20.7%
